According to US5863936A, “Telomerase inhibitors” (Geron Corporation, priority 1995, dated 1999):
Several values for one entry are separate records, joined by “and”; a condition that tells them apart may be missing. Identical values can stand only once. Like-named read-outs stand apart in the source and are kept apart here.

Molecular target: T1, telomerase (Homo sapiens, UniProt O14746)
T1 construct: cells, tissues, or preferably a cellular extract or other preparation containing telomerase; endogenous in cells
T1 sequence (O14746 whole entry): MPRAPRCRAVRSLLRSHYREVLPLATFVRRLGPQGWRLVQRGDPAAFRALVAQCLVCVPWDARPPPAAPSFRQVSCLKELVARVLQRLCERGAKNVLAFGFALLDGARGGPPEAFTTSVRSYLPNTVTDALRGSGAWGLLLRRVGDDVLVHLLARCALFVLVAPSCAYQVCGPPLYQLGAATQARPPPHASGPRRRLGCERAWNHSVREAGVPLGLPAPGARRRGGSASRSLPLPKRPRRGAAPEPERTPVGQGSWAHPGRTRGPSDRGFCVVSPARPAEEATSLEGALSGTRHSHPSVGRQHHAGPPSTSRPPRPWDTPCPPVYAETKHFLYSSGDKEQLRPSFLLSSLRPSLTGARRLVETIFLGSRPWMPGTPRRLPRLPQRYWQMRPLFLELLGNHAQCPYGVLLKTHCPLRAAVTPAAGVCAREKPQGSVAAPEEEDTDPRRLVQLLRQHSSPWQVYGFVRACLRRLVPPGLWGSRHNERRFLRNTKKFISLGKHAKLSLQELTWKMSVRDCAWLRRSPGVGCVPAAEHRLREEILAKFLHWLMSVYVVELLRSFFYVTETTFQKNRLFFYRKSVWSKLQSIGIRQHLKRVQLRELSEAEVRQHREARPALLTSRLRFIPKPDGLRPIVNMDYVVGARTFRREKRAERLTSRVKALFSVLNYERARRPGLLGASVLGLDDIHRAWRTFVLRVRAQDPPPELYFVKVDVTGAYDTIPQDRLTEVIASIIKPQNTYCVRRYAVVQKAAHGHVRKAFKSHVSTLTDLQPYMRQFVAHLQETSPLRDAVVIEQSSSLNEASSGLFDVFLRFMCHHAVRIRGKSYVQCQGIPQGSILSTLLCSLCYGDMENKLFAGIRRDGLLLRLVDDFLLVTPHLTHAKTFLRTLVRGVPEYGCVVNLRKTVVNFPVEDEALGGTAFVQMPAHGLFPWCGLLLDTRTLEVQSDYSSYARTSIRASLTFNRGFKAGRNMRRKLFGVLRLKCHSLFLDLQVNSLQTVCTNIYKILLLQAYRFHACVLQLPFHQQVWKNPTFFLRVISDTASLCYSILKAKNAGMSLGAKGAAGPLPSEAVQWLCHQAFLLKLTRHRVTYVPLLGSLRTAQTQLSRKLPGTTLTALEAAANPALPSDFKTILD
T1 sequence (O60832 whole entry partner): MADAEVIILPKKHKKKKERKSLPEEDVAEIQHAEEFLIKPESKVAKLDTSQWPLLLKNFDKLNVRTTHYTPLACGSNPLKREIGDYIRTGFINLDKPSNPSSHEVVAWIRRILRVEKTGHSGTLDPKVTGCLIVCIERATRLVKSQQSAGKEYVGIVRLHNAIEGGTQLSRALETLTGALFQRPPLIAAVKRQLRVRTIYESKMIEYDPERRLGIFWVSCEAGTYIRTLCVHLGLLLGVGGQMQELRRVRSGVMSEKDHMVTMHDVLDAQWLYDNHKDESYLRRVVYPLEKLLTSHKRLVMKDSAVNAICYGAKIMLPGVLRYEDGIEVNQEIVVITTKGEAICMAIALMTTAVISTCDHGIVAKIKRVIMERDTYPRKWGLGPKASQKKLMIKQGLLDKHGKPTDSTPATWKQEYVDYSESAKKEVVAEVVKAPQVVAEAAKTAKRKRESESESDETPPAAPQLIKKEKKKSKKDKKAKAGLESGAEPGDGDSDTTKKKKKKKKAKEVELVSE
T1 sequence (Q9NPE3 whole entry partner): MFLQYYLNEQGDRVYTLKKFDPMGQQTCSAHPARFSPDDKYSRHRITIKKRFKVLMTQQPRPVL
T1 sequence (Q9NX24 whole entry partner): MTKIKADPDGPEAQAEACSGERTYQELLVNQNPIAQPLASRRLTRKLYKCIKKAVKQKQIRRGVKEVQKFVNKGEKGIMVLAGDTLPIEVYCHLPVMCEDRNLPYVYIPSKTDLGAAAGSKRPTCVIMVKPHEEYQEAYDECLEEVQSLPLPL
T1 sequence (Q9NY12 whole entry partner): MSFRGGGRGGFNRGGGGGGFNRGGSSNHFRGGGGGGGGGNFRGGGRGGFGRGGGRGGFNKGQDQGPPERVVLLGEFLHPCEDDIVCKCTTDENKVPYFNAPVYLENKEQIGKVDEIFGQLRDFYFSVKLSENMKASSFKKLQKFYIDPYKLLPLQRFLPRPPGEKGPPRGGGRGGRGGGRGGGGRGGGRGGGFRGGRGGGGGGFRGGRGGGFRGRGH
Assay: Telomerase inhibition (IC50) with cellular extract or other preparation containing telomerase
Assay type: biochemical
Source text: One method used to identify compounds of the invention that inhibit telomerase activity involves placing cells, tissues, or preferably a cellular extract or other preparation containing telomerase in contact with several known concentrations of a test compound in a buffer compatible with telomerase activity. […] Other methods for determining the inhibitory concentration of a compound of the invention against telomerase can be employed as will be apparent to those of skill in the art based on the disclosure herein.
With the above-described methods, IC50 values for several of the compounds of the present invention were determined. The values reported in Table 1 below are only approximate values; more exact IC50 values can be obtained by repetitive testing.

[1] = approximate values, read-out: IC50

Row | Compound | anti-telomerase activity (in words) | IC50 [1] | IC50 (IC50, approximate values) [µM]
1 | Cc1ccc(Sc2ccccc2NC(=S)NNC(=O)c2cc3cc(NC(=S)Nc4ccccc4Sc4ccc(C)cc4)ccc3s2)cc1 [Compound III] | useful telomerase-inhibiting properties | 12 µM | –
2 | Cc1ccc(NC(=S)Nc2ccc3sc(C(=O)NNC(=S)Nc4cc(Cl)ccc4Cl)cc3c2)cc1 [Compound II] | good anti-telomerase activity | 6 µM | –
3 | Cc1cccc(NC(=S)Nc2ccc3sc(C(=O)NNC(=S)Nc4cc(C(F)(F)F)cc(C(F)(F)F)c4)cc3c2)c1 [Compound IV] | useful telomerase-inhibiting properties | 23.4 µM | –
4 | O=C(NNC(=S)Nc1cc(Cl)ccc1Cl)c1cc2ccccc2s1 [Compound VII] | – | 10 µM | –
5 | CSc1ccc(NC(=S)NNC(=O)c2cc3cc(NC(=S)Nc4cccc(C)c4)ccc3s2)cc1 [Compound VI] | useful telomerase-inhibiting properties | 6.4 µM | –
6 | Cc1ccc(Sc2ccccc2NC(=S)NNC(=O)c2cc3cc(NC(=S)Nc4cccc(C)c4)ccc3s2)cc1 [Compound V] | useful telomerase-inhibiting properties | 9.7 µM | –
7 | O=C(NNC(=S)Nc1cc(Br)ccc1Br)c1cc2c(Cl)cccc2s1 [Compound XIII] | – | 9 µM | –
8 | O=C(NNC(=S)Nc1cc(Cl)c(Cl)c(Cl)c1Cl)c1cc2c(Cl)cccc2s1 [Compound XII] | – | 7 µM | –
9 | O=C(NNC(=S)Nc1ccc(Cl)c(Cl)c1Cl)c1cc2c(Cl)cccc2s1 [Compound XIV] | – | 9 µM | –
10 | O=C(NNC(=S)Nc1cc(Cl)c(Cl)c(Cl)c1Cl)c1sc2ccccc2c1Cl [Compound XIX] | useful anti-telomerase properties | 8 µM | –
11 | O=C(NNC(=S)Nc1cc(Cl)c(Cl)cc1Cl)c1cc2c(Cl)cccc2s1 [Compound XI] | – | 10 µM | –
12 | O=C(NNC(=S)Nc1ccc(Cl)cc1)c1sc2ccc(Cl)c(Cl)c2c1Cl [Compound XLI] | – | 8 µM | –
13 | O=C(NNC(=S)Nc1c(Cl)cc(Cl)cc1Cl)c1sc2ccc(Cl)c(Cl)c2c1Cl [Compound XL] | – | 14 µM | –
14 | COc1ccc2c(Cl)c(C(=O)NNC(=S)Nc3cc(Cl)c(Cl)c(Cl)c3Cl)sc2c1Cl [Compound XVIII] | – | 15 µM | –
15 | COc1ccc2c(Cl)c(C(=O)NNC(=S)Nc3cc(Cl)c(Cl)cc3Cl)sc2c1Cl [Compound XVII] | – | 9 µM | –
16 | O=C(NNC(=S)Nc1ccc(Sc2ccc([N+](=O)[O-])cc2)cc1)c1cc2c(F)cccc2s1 [Compound XVI] | – | 6 µM | –
17 | Cc1ccc(Sc2ccccc2NC(=S)NNC(=O)c2cc3c(Cl)cccc3s2)cc1 [Compound XV] | – | 9 µM | –
18 | Cc1ccc2c(Cl)c(C(=O)NNC(=S)Nc3cccc(Cl)c3Cl)sc2c1 [Compound XXIII] | – | 10 µM | –
19 | COc1ccc2c(Cl)c(C(=O)NNC(=S)Nc3ccc(Cl)c(Cl)c3Cl)sc2c1 [Compound XXII] | useful telomerase-inhibiting properties | 8 µM | –
20 | O=C(NNC(=S)Nc1cc(Cl)c(Cl)cc1Cl)c1sc2cc(-c3ccccc3)ccc2c1Cl [Compound XXIV] | – | 8 µM | –

Row | Compound | anti-telomerase activity (in words) | IC50 [1] | IC50 (IC50, approximate values) [µM]
21 | O=C(NNC(=S)Nc1c(Cl)cc(Cl)cc1Cl)c1sc2cc(-c3ccccc3)ccc2c1Cl [Compound XXIX] | – | 7 µM | –
22 | COc1ccc2c(Cl)c(C(=O)NNC(=S)Nc3cc(Cl)c(Cl)c(Cl)c3Cl)sc2c1 [Compound XXI] | useful telomerase-inhibiting properties | 5 µM | –
23 | O=C(NNC(=S)Nc1cc(Br)ccc1Br)c1sc2cc(-c3ccccc3)ccc2c1Cl [Compound XXVIII] | – | 9 µM | –
24 | O=C(NNC(=S)Nc1cc(Cl)ccc1Cl)c1sc2cc(-c3ccccc3)ccc2c1Cl [Compound XXVII] | – | 6 µM | –
25 | O=C(NNC(=S)Nc1cccc(Cl)c1Cl)c1sc2cc(-c3ccccc3)ccc2c1Cl [Compound XXVI] | – | 6 µM | –
26 | O=C(NNC(=S)Nc1cc(Cl)c(Cl)c(Cl)c1Cl)c1sc2cc(-c3ccccc3)ccc2c1Cl [Compound XXV] | – | 10 µM | –
27 | O=C(NNC(=S)Nc1cc(Cl)ccc1Cl)c1sc2ccc(Cl)c(Cl)c2c1Cl [Compound XXXIII] | – | 7 µM | –
28 | O=C(NNC(=S)Nc1ccc(Cl)cc1Cl)c1sc2ccc(Cl)c(Cl)c2c1Cl [Compound XXXII] | – | 7 µM | –
29 | O=C(NNC(=S)Nc1ccc(Cl)c(Cl)c1Cl)c1sc2ccc(Cl)c(Cl)c2c1Cl [Compound XXXIV] | – | 6 µM | –
30 | O=C(NNC(=S)Nc1cc(Cl)c(Cl)cc1Cl)c1sc2ccc(Cl)c(Cl)c2c1Cl [Compound XXXIX] | – | 5 µM and ≤ 5 µM | –
31 | O=C(NNC(=S)Nc1cccc(Cl)c1Cl)c1sc2ccc(Cl)c(Cl)c2c1Cl [Compound XXXI] | – | 5 µM and ≤ 5 µM | –
32 | O=C(NNC(=S)Nc1ccc2ccccc2c1)c1sc2ccc(Cl)c(Cl)c2c1Cl [Compound XXXVIII] | – | 5 µM and ≤ 5 µM | –
33 | Cc1ccc(Sc2ccccc2NC(=S)NNC(=O)c2sc3ccc(Cl)c(Cl)c3c2Cl)cc1 [Compound XXXVII] | – | 7 µM | –
34 | O=C(NNC(=S)Nc1cc(C(F)(F)F)cc(C(F)(F)F)c1)c1sc2ccc(Cl)c(Cl)c2c1Cl [Compound XXXVI] | – | 8 µM | –
35 | O=C(NNC(=S)Nc1cc(Br)ccc1Br)c1sc2ccc(Cl)c(Cl)c2c1Cl [Compound XXXV] | – | 6 µM | –
36 | O=C(NNC(=S)Nc1cc(Cl)c(Cl)c(Cl)c1Cl)c1sc2ccc(Cl)c(Cl)c2c1Cl [Compound XXX] | – | 5 µM and ≤ 5 µM | –
37 | COc1ccc2c(Cl)c(C(=O)NNC(=S)Nc3cc(Cl)c(Cl)cc3Cl)sc2c1 [Compound XX] | useful telomerase-inhibiting properties | 9 µM | –
38 | Cc1ccc(Sc2ccccc2NC(=S)NNC(=O)c2cc3cccc(F)c3s2)cc1 [Compound X] | – | 6 µM | –
39 | O=C(NNC(=S)Nc1cc(Cl)c(Cl)c(Cl)c1Cl)c1cc2cccc(F)c2s1 [IX] | – | 5 µM and ≤ 5 µM | –
40 | O=C(NNC(=S)Nc1cc(Cl)c(Cl)cc1Cl)c1cc2cccc(F)c2s1 [VIII] | – | – | 7
